# Measured values reported in ChEMBL document CHEMBL1201861, “Genomics of Drug Sensitity in Cancer screening data, Wellcome Trust Sanger Institute”.
# Experiments:
# MEL-HO = experiment: cells; type: functional, cell-based, Homo sapiens; conditions: Homo sapiens, MEL-HO
# Description: SANGER: Inhibition of human MEL-HO cell growth in a cell viability assay.
# COR-L23 = experiment: cells; type: functional, cell-based, Homo sapiens; conditions: Homo sapiens, COR-L23;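 also: cell viability assay measuring how strongly compounds suppress growth of COR-L23 cells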
# Description: SANGER: Inhibition of human COR-L23 cell growth in a cell viability assay.
# BC-3 = experiment: cells; type: functional, cell-based; conditions: Homo sapiens;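 also: cell viability assay measuring growth inhibition of human BC-3 cells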
# Description: SANGER: Inhibition of human BC-3 cell growth in a cell viability assay.
# HLE = experiment: cells; type: functional, cell-based, Homo sapiens; conditions: Homo sapiens, HLE;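 also: growth inhibition of human HLE cells, read out by a cell viability assay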
# Description: SANGER: Inhibition of human HLE cell growth in a cell viability assay.
# COR-L279 = experiment: SANGER: Inhibition of human COR-L279 cell growth in a cell viability assay.; type: functional, cell-based
# EW-16 = experiment: cells; type: functional, cell-based, Homo sapiens; conditions: Homo sapiens, EW-16;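 also: growth inhibition of human EW-16 cells, read out as cell viability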
# Description: SANGER: Inhibition of human EW-16 cell growth in a cell viability assay.
# ARH-77 = experiment: cells; type: functional, cell-based; conditions: Homo sapiens;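 also: growth inhibition of ARH-77 cells, read out by a cell viability assay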
# Description: SANGER: Inhibition of human ARH-77 cell growth in a cell viability assay.
# SK-MEL-1 = experiment: cells; type: functional, cell-based; conditions: Homo sapiens;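 also: growth inhibition of human SK-MEL-1 cells, read out by a cell viability assay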
# Description: SANGER: Inhibition of human SK-MEL-1 cell growth in a cell viability assay.
# EHEB = experiment: cells; type: functional, cell-based; conditions: Homo sapiens;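 also: growth inhibition of human EHEB cells, read out with a cell viability assay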
# Description: SANGER: Inhibition of human EHEB cell growth in a cell viability assay.
# NALM-6 = experiment: cells; type: functional, cell-based; conditions: Homo sapiens;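 also: growth inhibition of NALM-6 cells, read out with a cell viability assay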
# Description: SANGER: Inhibition of human NALM-6 cell growth in a cell viability assay.
# MC-CAR = experiment: cells; type: functional, cell-based; conditions: Homo sapiens;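 also: growth inhibition of the human MC-CAR cell line, read out by a cell viability assay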
# Description: SANGER: Inhibition of human MC-CAR cell growth in a cell viability assay.
# CHP-126 = experiment: cells; type: functional, cell-based; conditions: Homo sapiens
# Description: SANGER: Inhibition of human CHP-126 cell growth in a cell viability assay.
# Kasumi 1 = experiment: cells; type: functional, cell-based; conditions: Homo sapiens;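 also: growth inhibition of human Kasumi-1 cells, read out by a cell viability assay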
# Description: SANGER: Inhibition of human KASUMI-1 cell growth in a cell viability assay.
# CAL-148 = experiment: cells; type: functional, cell-based; conditions: Homo sapiens
# Description: SANGER: Inhibition of human CAL-148 cell growth in a cell viability assay.
# SIMA = experiment: cells; type: functional, cell-based, Homo sapiens; conditions: Homo sapiens, SIMA;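 also: growth inhibition of SIMA cells, measured with a cell viability readout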
# Description: SANGER: Inhibition of human SIMA cell growth in a cell viability assay.
# MHH-ES-1 = experiment: cells; type: functional, cell-based, Homo sapiens; conditions: Homo sapiens, MHH-ES-1
# Description: SANGER: Inhibition of human MHH-ES-1 cell growth in a cell viability assay.
# TK-10 = experiment: cells; type: functional, cell-based, Homo sapiens; conditions: Homo sapiens, TK-10;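 also: growth inhibition of TK-10 cells, read out in a cell viability assay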
# Description: SANGER: Inhibition of human TK10 cell growth in a cell viability assay.
# HCE-T = experiment: cells; type: functional, cell-based, Homo sapiens; conditions: Homo sapiens, HCE-T;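 also: cell viability assay read-out, reporting inhibition of HCE-T cell growth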
# Description: SANGER: Inhibition of human HCE-T cell growth in a cell viability assay.
# NCI-H2081 = experiment: cells; type: functional, cell-based; conditions: Homo sapiens;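 also: growth inhibition of human NCI-H2081 cells, read out with a cell viability assay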
# Description: SANGER: Inhibition of human NCI-H2081 cell growth in a cell viability assay.
# DoTc2-4510 = experiment: cells; type: functional, cell-based, Homo sapiens; conditions: Homo sapiens, DoTc2-4510
# ST486 = experiment: SANGER: Inhibition of human ST486 cell growth in a cell viability assay.; type: functional, cell-based
# ChaGo-K-1 = experiment: cells; type: functional, cell-based; conditions: Homo sapiens;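 also: growth inhibition of ChaGo-K-1 cells, read out with a cell viability assay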
# Description: SANGER: Inhibition of human ChaGo-K-1 cell growth in a cell viability assay.
# OVCAR-8 = experiment: cells; type: functional, cell-based, Homo sapiens; conditions: Homo sapiens, OVCAR-8;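 also: growth inhibition of human OVCAR-8 cells, read out by a cell viability assay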
# Description: SANGER: Inhibition of human OVCAR-8 cell growth in a cell viability assay.
# KM-H2 = experiment: cells; type: functional, cell-based; conditions: Homo sapiens;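 also: growth inhibition of KM-H2 cells, read out by a cell viability assay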
# Description: SANGER: Inhibition of human KM-H2 cell growth in a cell viability assay.
# HT55 = experiment: cells; type: functional, cell-based, Homo sapiens; conditions: Homo sapiens, HT55;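 also: cell viability readout measuring growth inhibition of human HT55 cells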
# Description: SANGER: Inhibition of human HT55 cell growth in a cell viability assay.
# NCI-H716 = experiment: cells; type: functional, cell-based; conditions: Homo sapiens;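 also: growth inhibition of human NCI-H716 cells, measured by a cell viability assay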
# Description: SANGER: Inhibition of human NCI-H716 cell growth in a cell viability assay.
# NCCIT = experiment: SANGER: Inhibition of human NCCIT cell growth in a cell viability assay.; type: functional, cell-based
# NCI-H748 = experiment: cells; type: functional, cell-based; conditions: Homo sapiens;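 also: growth inhibition of NCI-H748 cells, measured by a cell viability assay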
# Description: SANGER: Inhibition of human NCI-H748 cell growth in a cell viability assay.
# P31-FUJ = experiment: cells; type: functional, cell-based; conditions: Homo sapiens;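 also: growth inhibition of P31-FUJ cells, read out with a viability assay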
# Description: SANGER: Inhibition of human P31-FUJ cell growth in a cell viability assay.
# KARPAS-299 = experiment: cells; type: functional, cell-based; conditions: Homo sapiens
# Description: SANGER: Inhibition of human KARPAS-299 cell growth in a cell viability assay.
# NCI-H524 = experiment: cells; type: functional, cell-based; conditions: Homo sapiens;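 also: growth inhibition of human NCI-H524 cells, read out through a cell viability assay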
# Description: SANGER: Inhibition of human NCI-H524 cell growth in a cell viability assay.
# NCI-H1694 = experiment: cells; type: functional, cell-based; conditions: Homo sapiens;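 also: cell viability assay measuring inhibition of growth in human NCI-H1694 cells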
# Description: SANGER: Inhibition of human NCI-H1694 cell growth in a cell viability assay.
# NCI-H64 = experiment: cells; type: functional, cell-based; conditions: Homo sapiens;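 also: growth inhibition of NCI-H64 cells, read out with a cell viability assay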
# Description: SANGER: Inhibition of human NCI-H64 cell growth in a cell viability assay.
# SCC-3 = experiment: cells; type: functional, cell-based; conditions: Homo sapiens;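 also: cell viability assay measuring inhibition of SCC-3 cell growth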
# Description: SANGER: Inhibition of human SCC-3 cell growth in a cell viability assay.
# SKG-IIIa = experiment: cells; type: functional, cell-based, Homo sapiens; conditions: Homo sapiens, SKG-IIIa;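 also: cell growth inhibition, read out with a cell viability assay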
# Description: SANGER: Inhibition of human SKG-IIIa cell growth in a cell viability assay.
# HPAF-II = experiment: cells; type: functional, cell-based, Homo sapiens; conditions: Homo sapiens, HPAF-II;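 also: growth inhibition of HPAF-II cells, read out with a cell viability assay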
# Description: SANGER: Inhibition of human HPAF-II cell growth in a cell viability assay.
# IST-SL2 = experiment: cells; type: functional, cell-based; conditions: Homo sapiens;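 also: growth inhibition of human IST-SL2 cells, read out by a cell viability assay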
# Description: SANGER: Inhibition of human IST-SL2 cell growth in a cell viability assay.
# SIG-M5 = experiment: cells; type: functional, cell-based; conditions: Homo sapiens;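 also: cell viability assay read-out, measuring how strongly growth of cultured human SIG-M5 cells is inhibited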
# Description: SANGER: Inhibition of human SIG-M5 cell growth in a cell viability assay.
# MRK-nu-1 = experiment: cells; type: functional, cell-based; conditions: Homo sapiens;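 also: cell viability assay measuring growth suppression of human MRK-nu-1 cells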
# Description: SANGER: Inhibition of human MRK-nu-1 cell growth in a cell viability assay.
# DMS-153 = experiment: cells; type: functional, cell-based; conditions: Homo sapiens
# Description: SANGER: Inhibition of human DMS-153 cell growth in a cell viability assay.
# SNU-16 = experiment: cells; type: functional, cell-based; conditions: Homo sapiens;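 also: growth inhibition of human SNU-16 cells, determined with a cell viability readout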
# Description: SANGER: Inhibition of human NCI-SNU-16 cell growth in a cell viability assay.
# ESS-1 = experiment: cells; type: functional, cell-based, Homo sapiens; conditions: Homo sapiens, ESS-1;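 also: growth inhibition of human ESS-1 cells, read out by a cell viability assay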
# Description: SANGER: Inhibition of human ESS-1 cell growth in a cell viability assay.
# RL95-2 = experiment: cells; type: functional, cell-based; conditions: Homo sapiens;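 also: RL95-2 growth inhibition determined through a cell viability readout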
# Description: SANGER: Inhibition of human RL95-2 cell growth in a cell viability assay.
# IM-9 = experiment: SANGER: Inhibition of human IM-9 cell growth in a cell viability assay.; type: functional, cell-based
# CaR-1 = experiment: cells; type: functional, cell-based, Homo sapiens; conditions: Homo sapiens, CaR-1;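 also: growth inhibition of human CaR-1 cancer cells, read out with a cell viability assay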
# Description: SANGER: Inhibition of human CaR-1 cell growth in a cell viability assay.
# RPMI-8866 = experiment: cells; type: functional, cell-based; conditions: Homo sapiens
# Description: SANGER: Inhibition of human RPMI-8866 cell growth in a cell viability assay.
# NCI-H1963 = experiment: cells; type: functional, cell-based; conditions: Homo sapiens;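 also: cell growth inhibition of the human line, determined with a cell viability assay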
# Description: SANGER: Inhibition of human NCI-H1963 cell growth in a cell viability assay.
# NCI-H460 = experiment: cells; type: functional, cell-based, Homo sapiens; conditions: Homo sapiens, NCI-H460;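 also: cell viability assay scoring growth inhibition of human NCI-H460 cells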
# Description: SANGER: Inhibition of human NCI-H460 cell growth in a cell viability assay.
# NCI-H322M = experiment: cells; type: functional, cell-based; conditions: Homo sapiens;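 also: cell viability assay measuring inhibition of growth of human NCI-H322M cells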
# Description: SANGER: Inhibition of human NCI-H322M cell growth in a cell viability assay.
# HCT-15 = experiment: cells; type: functional, cell-based, Homo sapiens; conditions: Homo sapiens, HCT-15;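 also: cell viability readout, IC50 reflecting suppression of HCT-15 cell growth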
# Description: SANGER: Inhibition of human HCT-15 cell growth in a cell viability assay.
# 8305C = experiment: cells; type: functional, cell-based, Homo sapiens; conditions: Homo sapiens, 8305C
# Description: SANGER: Inhibition of human 8305C cell growth in a cell viability assay.
smiles,measurement,setting,value
Cc1cnc(-c2cnc(NCCNc3ccc(C#N)cn3)nc2-c2ccc(Cl)cc2Cl)[nH]1 [LADUVIGLUSIB],IC50,MEL-HO,> 2560 nM
same,IC50,COR-L23,> 2560 nM
same,IC50,BC-3,> 2560 nM
same,IC50,HLE,> 2560 nM
same,IC50,COR-L279,> 2560 nM
same,IC50,EW-16,> 2560 nM
same,IC50,ARH-77,> 2560 nM
same,IC50,SK-MEL-1,> 2560 nM
same,IC50,EHEB,> 2560 nM
same,IC50,NALM-6,> 2560 nM
same,IC50,MC-CAR,> 2560 nM
same,IC50,CHP-126,> 2560 nM
same,IC50,Kasumi 1,> 2560 nM
same,IC50,CAL-148,> 2560 nM
same,IC50,SIMA,> 2560 nM
same,IC50,MHH-ES-1,> 2560 nM
same,IC50,TK-10,> 2560 nM
same,IC50,HCE-T,> 2560 nM
same,IC50,NCI-H2081,> 2560 nM
same,IC50,DoTc2-4510,> 2560 nM
same,IC50,ST486,> 2560 nM
same,IC50,ChaGo-K-1,> 2560 nM
same,IC50,OVCAR-8,> 2560 nM
same,IC50,KM-H2,> 2560 nM
same,IC50,HT55,> 2560 nM
same,IC50,NCI-H716,> 2560 nM
same,IC50,NCCIT,> 2560 nM
same,IC50,NCI-H748,> 2560 nM
same,IC50,P31-FUJ,> 2560 nM
same,IC50,KARPAS-299,> 2560 nM
same,IC50,NCI-H524,> 2560 nM
same,IC50,NCI-H1694,> 2560 nM
same,IC50,NCI-H64,> 2560 nM
same,IC50,SCC-3,> 2560 nM
same,IC50,SKG-IIIa,> 2560 nM
same,IC50,HPAF-II,> 2560 nM
same,IC50,IST-SL2,> 2560 nM
same,IC50,SIG-M5,> 2560 nM
same,IC50,MRK-nu-1,> 2560 nM
same,IC50,DMS-153,> 2560 nM
same,IC50,SNU-16,> 2560 nM
same,IC50,ESS-1,> 2560 nM
same,IC50,RL95-2,> 2560 nM
same,IC50,IM-9,> 2560 nM
same,IC50,CaR-1,> 2560 nM
same,IC50,RPMI-8866,> 2560 nM
same,IC50,NCI-H1963,> 2560 nM
same,IC50,NCI-H460,> 2560 nM
same,IC50,NCI-H322M,> 2560 nM
same,IC50,HCT-15,> 2560 nM
same,IC50,8305C,> 2560 nM
CCC(=O)N1CCN(c2ccc(-n3c(=O)ccc4cnc5ccc(-c6cnc7ccccc7c6)cc5c43)cc2C(F)(F)F)CC1 [TORIN1],IC50,BC-3,82 nM
same,IC50,COR-L279,108 nM
same,IC50,EW-16,11.9 nM
same,IC50,ARH-77,72.8 nM
same,IC50,SK-MEL-1,> 1200 nM
same,IC50,EHEB,512 nM
same,IC50,NALM-6,11 nM
same,IC50,MC-CAR,554 nM
same,IC50,CHP-126,> 1200 nM
same,IC50,Kasumi 1,> 1200 nM
same,IC50,CAL-148,118 nM
same,IC50,SIMA,> 1200 nM
same,IC50,TK-10,40.2 nM
same,IC50,HCE-T,109 nM
same,IC50,NCI-H2081,> 1200 nM
same,IC50,ST486,106 nM
same,IC50,KM-H2,> 1200 nM
same,IC50,NCI-H716,> 1200 nM
same,IC50,NCCIT,543 nM
same,IC50,NCI-H748,189 nM
same,IC50,P31-FUJ,> 1200 nM
same,IC50,KARPAS-299,122 nM
same,IC50,NCI-H524,587 nM
same,IC50,NCI-H1694,507 nM
same,IC50,NCI-H64,303 nM
same,IC50,SCC-3,129 nM
same,IC50,IST-SL2,53.6 nM
same,IC50,SIG-M5,89 nM
same,IC50,MRK-nu-1,7.07 nM
same,IC50,DMS-153,> 1200 nM
same,IC50,SNU-16,302 nM
same,IC50,RL95-2,3.2 nM
same,IC50,IM-9,> 1200 nM
same,IC50,RPMI-8866,> 1200 nM
same,IC50,NCI-H1963,626 nM
same,IC50,NCI-H322M,> 1200 nM
Cc1cc(Nc2cc(N3CCN(C)CC3)nc(Sc3ccc(NC(=O)C4CC4)cc3)n2)n[nH]1 [TOZASERTIB],IC50,BC-3,> 2000 nM
same,IC50,COR-L279,> 2000 nM
same,IC50,EW-16,238 nM
same,IC50,ARH-77,> 2000 nM
same,IC50,SK-MEL-1,> 2000 nM
same,IC50,EHEB,> 2000 nM
same,IC50,NALM-6,25.5 nM
same,IC50,MC-CAR,> 2000 nM
same,IC50,CHP-126,> 2000 nM
same,IC50,Kasumi 1,> 2000 nM
same,IC50,CAL-148,> 2000 nM
same,IC50,SIMA,> 2000 nM
same,IC50,TK-10,> 2000 nM
same,IC50,HCE-T,> 2000 nM
same,IC50,NCI-H2081,> 2000 nM
same,IC50,ST486,231 nM
same,IC50,KM-H2,> 2000 nM
same,IC50,NCI-H716,> 2000 nM
same,IC50,NCCIT,> 2000 nM
same,IC50,NCI-H748,> 2000 nM
same,IC50,P31-FUJ,> 2000 nM
same,IC50,KARPAS-299,> 2000 nM
same,IC50,NCI-H524,511 nM
same,IC50,NCI-H1694,> 2000 nM
same,IC50,NCI-H64,> 2000 nM
same,IC50,SCC-3,> 2000 nM
same,IC50,IST-SL2,720 nM
same,IC50,SIG-M5,167 nM
same,IC50,MRK-nu-1,381 nM
same,IC50,DMS-153,> 2000 nM
same,IC50,SNU-16,636 nM
same,IC50,RL95-2,406 nM
same,IC50,IM-9,> 2000 nM
same,IC50,RPMI-8866,> 2000 nM
same,IC50,NCI-H1963,1710 nM
same,IC50,NCI-H322M,> 2000 nM
